From US4435404A, “Carbostyril derivatives” (priority 1980, dated 1984)

What was measured:
[1] = test system: collagen-induced aggregation in rabbit platelet; assay: Inhibition effect on collagen-induced aggregation in rabbit platelet; format: cell-based; settings: Oryctolagus cuniculus, Platelet, read-out: Inhibition effect on collagen-induced aggregation
In short: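 Aggregation was followed by transmittance at 37 °C with 1,100 rpm stirring, using rabbit PRP preincubated 1 min with test compound. Inhibition was expressed relative to controls, with aspirin as comparator.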

[2] = test system: arterial papillary muscle; assay: Positive inotropic effect, blood-perfused arterial papillary muscle; parameters: species or system dog; settings: Canis lupus familiaris, into septal artery, read-out: Increasing of inotropic
Method: Positive inotropic effects of the novel carbostyril derivatives of the present invention were tested according to a method described by M. Endoh and K. Hashimoto, in "American Journal of Physiology", Vol. 218, No. 5, May, 1970, pages 1459-1463 as follows:
Adult bastard dogs of both sexes, weighing 8-12 kg, were anesthetized with pentobarbital-Na at a rate of 30 mg/kg by intraveneous administration. After another intraveneous administration of sodium heparin, 1,000 μ/kg, the test dog was sacrificed by blood letting. The heart of the dog was excised and immediately plunged into Locke's solution, then the arterial papillary muscle was excised out with interventicular septum. The septal artery was carefully isolated and cannulated with a polyethylene cannula and was ligated with thread. Septal arteries those of connected to other than the arterial papillary muscle were ligated with thread. Next, the donor adult bastard dogs, weighing 18-27 kg, were anesthetized with pentabarbital-Na (30 mg/kg, intraveneous injection), and further treated with intravenous administration of sodium heparin (1,000 μ/kg). The arterial papillary muscle was perfused through the septal artery being cannulated with the polyethylene cannula with the blood conducted from the carotid artery of the donor dog by aid of Peristaric pump. The perfusion pressure was maintained at 100 mmHg constantly. Then the muscle was electrically stimulated by an electronic stimulator through bipolar electrodes in contact with the interventicular septum. The strength of stimulation was 2 X (the minimum value for appearing the action), frequency 2 Hz, pulse duration 2 msec.
The isometric contraction generated was measured through a force-displacement transducer. The amount of blood flow in the coronary arteries was measured by determining the amount of the blood flow conducted to the septal artery by electromagnetic flow meter. All the data were recorded on an ink-writing recorder.
A solution containing a compound to be tested was injected into the septal artery through the rubber tube connected close to the shunk of the polyethylene cannula, in an amount of 10-30 μl.
The results obtained is shown in Table 4, in which the increasement (%) of contraction is indicated as the ratio of the contractions before and after the administration (injection) of the solution containing the test compound.

[3] = test system: Gold blatt type renoprival hypertension rats (RHR); assay: Hypotensive effect, Tail-cuff method, RHR; format: in vivo, rat; settings: 30 mg/kg oral, mean value ± standard deviation
Method: (§1) Hypotensive effect of the compounds were measured by determining the maximum blood pressure of the test animals according to a procedure of Tail-cuff method.
(§2) Test animals used were the following two types.
(1) Gold blatt type renoprival hypertension rats (RHR)
Wistar strain male rats having, 160-180 g of body weight, were anesthetized with ether and the left-side renal artery was pluged with a silver clip having 0.2 mm inside diameter, while the right-side renal artery was kept as it was without operation. Four (4) weeks after the operation, rats having the maximum blood pressure over 150 mmHg were selected and used as test animals which were abstained from food for overnight.
(§3) Each of compounds to be tested were administered orally and the blood pressure was measured before the administration and 1, 2, 4, 6 and 8 hours after the administration. The blood pressure was measured by using Recorder (Rectihoriz type 8S, San-ei Instrument) and Electrosthygmomanometer PE-300 (Macro Bio-systems, Houston, Tex.).

[4] = test system: Deoxycorticosteroneacetate (DOCA)/saline hypertension rats (DHR); assay: Hypotensive effect, Tail-cuff method, DHR; format: in vivo, rat; settings: 30 mg/kg oral, mean value ± standard deviation
Method: as §1, §2
(2) Deoxycorticosteroneacetate (DOCA)/saline hypertension rats (DHR)
Wistar strain male rats having 150-170 g of body weight, were anesthetized with ether and the left-side kidney was enucleated. One (1) week after the operation, 10 mg/kg of DOCA was injected subcutaneously once a week and 1% NaCl aqueous solution was given as drinking water. Five (5) weeks after the operation, rats having the maximum blood pressure over 150 mmHg were selected and used as test animals which were abstained from food for overnight.
as §3

Acute Toxicity Test = settings: mouse, in vivo; male mice, oral administration
Method: The test compounds were administered orally to the mice and LD50 (mg/kg) of the compounds was determined.

Wistar strain male rats = assay: Test of increasing effect of heart rate; format: in vivo, rat; settings: 30 mg/kg oral, 60 minutes after the administration
Method: Wistar strain male rats, having 180-230 g of body weight, were abstained from food for 24 hours, the electrocardiograms introduced from the second induction period were recorded on oscillograph. The heart rate was calculated from the electrocardiograms by observing them for 10 seconds several times. […] 60 Minutes after the administration, the heart rate was measured and increasing effect of the heart rate was calculated. Generally, an average heart rate of an usual Wistar strain male rat is about 320 beat/minute.

Molecule `O=C(CCCOc1ccc2[nH]c(=O)ccc2c1)N(CCO)C1CCCCC1` [No. 1, 6-{3-[N-(2-hydroxyethyl)-N-cyclohexylaminocarbonyl]propoxy}carbostyril] has an inhibition at 10 µM ([1]; concentration of the test compound solution 10^-5 mole) of 100%, an inhibition at 1 µM ([1]; concentration of the test compound solution 10^-6 mole) of 100% and an inhibition at 0.1 µM ([1]; concentration of the test compound solution 10^-7 mole) of 60.1%. The activation at 3 nmol ([2]; dosage 3 n mol) was 8.2%, the activation at 30 nmol ([2]; dosage 30 n mol) was 54.5% and the “Maximum blood pressure after the administration (difference)” value (shortened to “Maximum blood pressure … (difference)”) ([3]; 1 hour) was -27.0 ± 14.0 mmHg. For the same molecule, the “Maximum blood pressure … (difference)” value ([3]; 2 hours) was -28.6 ± 16.4 mmHg, the “Maximum blood pressure … (difference)” value ([3]; 4 hours) was -32.4 ± 15.2 mmHg and the “Maximum blood pressure … (difference)” value ([3]; 6 hours) was -35.0 ± 11.5 mmHg. For the same molecule, the “Maximum blood pressure … (difference)” value ([3]; 8 hours) was -41.3 ± 17.2 mmHg, the “Maximum blood pressure … (difference)” value ([4]; 1 hour) was -46.0 ± 11.7 mmHg and the “Maximum blood pressure … (difference)” value ([4]; 2 hours) was -42.6 ± 6.5 mmHg. For the same molecule, the “Maximum blood pressure … (difference)” value ([4]; 4 hours) was -37.6 ± 5.2 mmHg, the “Maximum blood pressure … (difference)” value ([4]; 6 hours) was -34.4 ± 10.5 mmHg and the “Maximum blood pressure … (difference)” value ([4]; 8 hours) was -29.0 ± 10.5 mmHg. The LD50 (Acute Toxicity Test) was > 1000 mg/kg and the “Increasing effect of heart rate” value (Wistar strain male rats) was 42 Beat/min.
